Reference: PubChem BioAssay AID493003 (Sanford-Burnham Center for Chemical Genomics, 2010)
Calls of active or inactive are those of the source. How the calls were made is not given here.

What follows are compounds tested on S. cerevisiae tim10-1 mutant growth, luminescence (assay: tim10-1 yeast growth inhibition potency – luminescence, S. cerevisiae, uHTS hits, dose response (AID 493003);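 further: yeast growth measured after about 22 hours at 25 °C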).

SMILES | IC50
Brc1ccc(-c2cn3c(n2)CCc2ccc4cccnc4c2-3)cc1 | > 100 µM (inactive)
COc1ccccc1C/C(N)=N/OC(=O)c1ccco1 | 37.3 µM
Cc1oc2cc(Br)c(O)c(Br)c2c1C(=O)c1ccccc1 | 25.9 µM
N/C(=N\OC(=O)CCC1CCCC1)c1cccc([N+](=O)[O-])c1 | 6.48 µM
S=C1NC(c2cccs2)=CC(c2ccc(Br)cc2)N1 (stereo unspecified) | 18.1 µM
CN1/C(=C\C(=O)Nc2ccc(Br)cc2)C(C)(C)c2ccccc21 | 38.7 µM
CCN1C(=O)C2(C(C#N)=C(N)Oc3c2c(C)nn3-c2ccccc2)c2ccccc21 (stereo unspecified) | 22.2 µM
O=C1CN(C(=O)/C=C/c2cccc(Cl)c2)c2ccccc2N1 | 30.3 µM
O=C(c1cc(COc2cccc(C(F)(F)F)c2)on1)N1C[C@@H]2CCC[C@H]1C2 | 27.3 µM
Cc1ccc(F)c(NC(=O)c2c(-c3ccccc3)noc2C)c1 | 58.6 µM
O=C(Nc1cccc(C(F)(F)F)c1)c1cccnc1NCCc1ccccc1 | 46.6 µM
O=C(NC1CCCCC1)c1ccc(-c2ccc(Cl)cc2)o1 | 17.4 µM
Cc1ccc(OCC(=O)O/N=C(\N)Cc2ccc([N+](=O)[O-])cc2)cc1C | 25.1 µM
CCOC(=O)c1sc(-c2ccc(Br)cc2)cc1N | 18.6 µM
CO/N=C/c1ccc(Sc2ccccc2N)c([N+](=O)[O-])c1 | 56.4 µM
CN(C1CCCCC1)S(=O)(=O)c1ccc(NC(=O)c2ccco2)cc1 | 38 µM
CC(CNC(=O)COc1ccccc1)OC(=O)Nc1ccc(Cl)c(Cl)c1 (stereo unspecified) | 20.2 µM
CCOC(=O)c1c(OCC)[nH]c2c1cc(O)c1ccccc12 | 17.9 µM
CC(C)C(=O)N1CCN(c2ccccc2NC(=O)c2ccc([N+](=O)[O-])o2)CC1 | 11.5 µM
COC(=O)c1ccccc1NC(=S)NC(=O)C1CCCCC1 | 42.5 µM
CN(C)CCCN1c2ccccc2CCc2ccc(Cl)cc21 | 37.8 µM
Cn1nc(-c2ccccc2)cc1NC(=O)Nc1ccc(C(C)(C)C)cc1 | 20.3 µM
COc1ccc(-c2nncnn2)cc1 | 8.84 µM
CN=C(Nc1cc(Cl)ccc1Cl)SC1CC(=O)N(c2ccc(C(=O)OC)cc2)C1=O (stereo unspecified) | 12.6 µM

SMILES | IC50
COc1ccc(C(=O)/C=C/c2ccccc2)c(O)c1 | 34.2 µM
COc1ccc(/C=C/C(=O)c2ccccc2)cc1Cn1nnc2ccccc21 | 6.4 µM
Cc1ccsc1C1Nc2ccccc2-c2nc3ccccc3n21 (stereo unspecified) | 28.5 µM
CN(C)CCCN(C(=O)c1ccc(S(=O)(=O)N2CCc3ccccc3C2)cc1)c1nc2c(F)cc(F)cc2s1 | 35.2 µM
CC(=O)c1ccc(NC(=S)NC(C)c2ccc(Cl)cc2Cl)cc1 (stereo unspecified) | 13.2 µM
O=C(OCn1ncc(Br)c(Br)c1=O)c1ccc(F)cc1 | 3.3 µM
Cn1c(/C=C/c2ccc([N+](=O)[O-])o2)nc2ccccc2c1=O | 7.3 µM
C=CCN(C(=O)c1cccc(S(=O)(=O)N2CCN(C)CC2)c1)c1nc(-c2ccccc2)cs1 | 46.8 µM
CC(NC(=O)Nc1cccc([N+](=O)[O-])c1)(C(F)(F)F)C(F)(F)F | 57.2 µM
Clc1ccc(CNc2nc(CN3CCOCC3)nc3scc(-c4ccccc4)c23)cc1 | 13.3 µM
Oc1ccc(-c2nccc(-c3ccc(Cl)cc3Cl)n2)cc1 | 37.1 µM
N/C(=N\OC(=O)CCCc1ccccc1)c1ccc([N+](=O)[O-])cc1 | 28.5 µM
Cc1cc(N(CCO)CCO)ccc1N=Nc1cc(F)ccc1F | 26.1 µM
O=C(CNS(=O)(=O)c1c(Cl)cccc1Cl)OCc1csc(-c2ccccc2)n1 | 41 µM
O=C(Nc1ccc(N2CCN(C(=O)c3ccccc3F)CC2)cc1)c1cncc(Br)c1 | 41.3 µM
CCC(=O)Oc1ccc(-c2nc(-c3cccnc3)no2)cc1 | 43.4 µM
COc1ccc(-c2cc(-c3ccc(Cl)cc3)n[nH]2)c(O)c1 | 27.1 µM
CN(CCc1ccccn1)C1CC(=O)N(c2ccc(Cl)cc2)C1=O (stereo unspecified) | 24.7 µM
Cc1cccc(Oc2cc(NC(=O)c3ccccc3)cc([N+](=O)[O-])c2)c1 | 20.4 µM
COc1ccc(/C(N)=N/OC(=O)c2ccc3c(c2)OCO3)cc1 | 14.9 µM
Cc1sc2ncnc(Oc3ccc(-n4ccnc4)cc3)c2c1C | 46 µM
Cc1ccccc1NC1=NC(=S)N(c2ccccc2)C12CCCCC2 | 14.7 µM
C/C(=N\NC(=S)NCc1ccccc1)c1ccc(Cl)s1 | 16.4 µM
Cc1ccc(NC(=O)c2cc(S(=O)(=O)NCCC3=CCCCC3)ccc2F)cc1 | 10.8 µM

SMILES | IC50
Cc1c(Cl)cccc1NC(=O)c1cccc(OC(F)F)c1 | 32.8 µM
COc1cc2c(cc1OC)CN(c1ccc([N+](=O)[O-])cc1Cl)CC2 | 27.6 µM
O=C(Nc1ccc(C(=O)N2CCN(c3ccc(F)cc3)CC2)cc1)C1=CSCCO1 | 44.3 µM
Cc1nc2ccc(Nc3nc4cc(S(=O)(=O)N5CCOCC5)ccc4o3)cc2s1 | 19.4 µM
Oc1ccc(-c2nccc(-c3ccc(Cl)cc3)n2)cc1 | 24.6 µM
CN1CCc2c(C#N)c(N3CCCCC3)nc(NCc3ccccc3)c2C1 | 16 µM
CCC(Oc1ccccc1)C(=O)Nc1ncc([N+](=O)[O-])s1 (stereo unspecified) | 18.3 µM
COc1cccc(-c2nn3c(-c4ccccn4)nnc3s2)c1 | 33.4 µM
c1ccc(Nc2cccc(Nc3ccccc3)n2)cc1 | 14.2 µM
COc1ccccc1-c1cc2ccccc2[nH]1 | 46.9 µM
C=CC(C)(C)c1c(O)c(CC=C(C)C)c(O)c2c(=O)c3ccc(O)c(O)c3oc12 | 30.7 µM
CCSc1nc2ccccc2n1C(=O)/C=C\c1ccc(OC)c(OC)c1 | 10.4 µM
Cc1nc2ccccn2c1P(=S)(N1CCCCC1)N1CCCCC1 | 39.7 µM
COc1ccc2cc3cc(C(=O)NCCN4CCN(Cc5ccccc5)CC4)oc3nc2c1 | 27.9 µM
Cc1cc(NC(=O)c2ccccc2Oc2ccccc2)no1 | 60.3 µM
N/C(=N\OC(=O)CCCOc1ccc(Cl)cc1Cl)c1ccncc1 | 47.6 µM
CCNC(=S)N/N=C/c1ccc(-c2ccccc2)o1 | 34.8 µM
N#C/C(=C\c1c[nH]c2ccc(Br)cc12)c1ccccn1 | 33.4 µM
Cc1cccc(C(=O)CC(=O)c2cc(Cl)ccc2O)c1 | 19 µM
Clc1cccc(CN2CCc3c([nH]c4ccccc34)C2)c1 | 30.7 µM
CC(C)c1ccc(S(=O)(=O)N2CCN(CC(=O)Nc3ccc4c(c3)OCO4)CC2)cc1 | 75.4 µM
Cc1cc(N2C3CCC2CC(O)(c2ccc(F)cc2)C3)nc(-c2ccccc2)n1 (stereo unspecified) | 25.4 µM
N/C(Cc1ccc(Cl)cc1)=N\OC(=O)c1ccc2ccccc2c1 | 0.25 µM
Cc1ccc(N2C(=O)CC(Sc3cccs3)C2=O)cc1 (stereo unspecified) | 24 µM

SMILES | IC50
O=S(=O)(CCN(CCS(=O)(=O)C(F)(F)F)CC1CCCO1)C(F)(F)F (stereo unspecified) | 7.82 µM
Cc1cc(N/N=C/c2ccc(Cl)cc2)nc(NCc2ccccc2)n1 | 36.6 µM
CN1CCCN(C(c2ccccc2)c2ccc(Cl)cc2)CC1 (stereo unspecified) | 30.9 µM
COc1ccc(C)c2sc(N3CCCC3)nc12 | 21.7 µM
CCN(CC1COc2ccccc2O1)C(=S)Nc1ccccc1 (stereo unspecified) | 64.8 µM
Cn1c(Cl)cnc1C1CC(=O)c2cc(Cl)ccc2O1 (stereo unspecified) | 8.24 µM
COc1ccc(Br)cc1[C@H]1[C@@H]2C=CCC[C@@]2(C)C(=O)N1Cc1ccccc1 | 12.1 µM
O=C1CC(Sc2cccs2)C(=O)N1c1ccccc1 (stereo unspecified) | 30.7 µM
O=C(Nc1ccccc1Cl)C(Cl)C(=O)c1ccccc1 (stereo unspecified) | 70.1 µM
Cn1c2ccccc2c(=O)c2ccc(C#CC3(N)CCCCC3)cc21 | 27.1 µM
Cc1[nH]nc2c1-c1nc3ccccc3nc1C(C)(C)C2 | 23.8 µM
Cc1cc(N/N=C/c2ccccc2O)nc(-c2ccccc2O)n1 | 76.6 µM
COc1ccc(-c2cc(C3CC3)nc3sc(C#N)c(N)c23)cc1 | 12.7 µM
O=S(=O)(Nc1ccc(N=Nc2ccccc2)cc1)c1ccccc1 | 35.5 µM
O=C(NC(=S)Nc1ccccc1N1CCCC1)c1ccc([N+](=O)[O-])cc1 | 14 µM
CCOC(=O)N1CCN(S(=O)(=O)c2ccc3c(c2)CCN3C(=O)C2CCC2)CC1 | 34.2 µM
O=C(Nc1ccc(N2CCN(C(=O)c3cccs3)CC2)cc1)c1cccc(F)c1 | 40.5 µM
O=C1CC(Sc2nnnn2-c2ccccc2)C(=O)N1c1cccc(Cl)c1 (stereo unspecified) | 9.03 µM
CCCC(=O)Nn1cnc2c(c1=O)C1(CCCC1)Cc1ccccc1-2 | 75.2 µM
CCCOc1ccccc1NC(=O)/C=C/C(N)=O | 5.67 µM
CCN(CC)c1ccc(NC(=O)CCCCCN2C(=O)c3ccccc3C2=O)cc1 | 14.3 µM
Cc1cccc(C(=O)O/N=C2\CCCc3ccccc32)c1 | > 100 µM (inactive)
O=S(=O)(Nc1cccc2cccnc12)c1ccc(S(=O)(=O)N2CCCC2)cc1 | 41.2 µM
Nc1ccccc1Sc1ccc(C(F)(F)F)cc1[N+](=O)[O-] | 28.9 µM

SMILES | IC50
Cc1ccccc1SCC(=O)Nc1cc(C(F)(F)F)ccc1N1CCOCC1 | 28.4 µM
CN(C)CCCN(C(=O)c1ccc(Cl)s1)c1nc2cc3c(cc2s1)OCO3 | 29.4 µM
N/C(=N\OC(=O)c1cccc(Cn2cc(C(F)(F)F)ccc2=O)c1)c1ccccc1 | 23.3 µM
S=c1[nH]nc(CSc2nc3ccccc3s2)n1C1CCCCC1 | > 100 µM (inactive)
COc1ccccc1C/C(N)=N/OC(=O)COc1ccccc1C | 38 µM
O=c1c2ccccc2nc(/C=C/c2ccc([N+](=O)[O-])o2)n1CCCO | 4.53 µM
Clc1ccc(Cn2c(/C=C/c3ccco3)nc3ccccc32)cc1 | 45.7 µM
CC[C@@H]1CC=C[C@H]2[C@H]1C(=O)N(Cc1ccccc1)[C@H]2c1ccoc1 | 7.61 µM
Cc1cc2c(cc1C)CSC(c1ccccc1O)SC2 | 20.7 µM
O=C1CC(N2CCCCCC2)C(=O)N1c1ccc(F)cc1 (stereo unspecified) | 13.9 µM
COc1cc(C(=O)Nc2ccc(Cl)c(C(F)(F)F)c2)cc(OC)c1OC | 16.8 µM
O=C1CS(=O)(=O)N(Cc2cccc(F)c2)c2ccc(Br)cc21 | 5.54 µM
CCN1CCN(c2cc(N3CCc4ccccc4C3)c(F)cc2[N+](=O)[O-])CC1 | 29 µM
OCCN1CCN(C2Cc3cc(Cl)ccc3Sc3ccc(Cl)cc32)CC1 (stereo unspecified) (tested in a mixture with another compound) | 20.4 µM
COc1ccc(-c2cc(C3CCN(C(=O)OC(C)(C)C)CC3)[nH]n2)cc1 | 51.2 µM
CCn1nc(C)c(C(=O)Nc2cc(Oc3ccc(Cl)cc3)cc([N+](=O)[O-])c2)c1C | 43.1 µM
C=C(C)COc1ccc(-c2[nH]ncc2Oc2ccccc2OC)c(O)c1 | > 100 µM (inactive)
Fc1ccccc1CNc1cc(Cl)cc(Cl)c1 | 26 µM
Cc1nn(Cc2c(F)c(F)c(F)c(F)c2F)c(C)c1NC(=O)c1ccc(COc2ccc(Cl)cc2Cl)o1 | 25.5 µM
CCOC(=O)/C=C/C(=O)OCC(=O)Nc1ccc([N+](=O)[O-])cc1 | 8.19 µM
